Experimental data from patent US20220162257A1, “3ALPHA, 5BETA-NEUROACTIVE STEROIDS FOR THE TREATMENT OF EPILEPSY AND SEIZURE DISEASES” (USTAV ORGANICKE CHEMIE A BIOCHEMIE AV CR, V. V. I., priority 2019, published 2022).
Where a name gives a salt, the structure may show the parent alone.

Assays:
[1] = test system: PTZ-induced seizures in zebrafish (Danio rerio); experiment: pentetrazol (PTZ)-induced seizures in zebrafish larvae; type: in vivo; settings: 7 dpf larvae, PTZ 5 mmol/L; for epileptiform locomotor activity in the dark phase/light test, sedation: doses of 1, 3 and 5 mg/kg; for locomotor activity epileptiform induced by PTZ (spontaneous locomotor activity, maximum velocity, angle turns): doses of 1, 3 and 5 mg/kg (1, 3 and 5 μmol/L in the source)
Procedure: Adults wild-type (strain AB) zebrafish (Danio rerio) were maintained at 28-29° C. on a light cycle of 14 h light:10h dark (lights on at 7 am; lights off at 9 pm) at ZeClinics animal facility (Barcelona). All procedures involving animals and their care were conducted accordingly to CEA-OH/9421/2 authorization from Government of Catalonia. Embryos obtained by pairwise mating were raised in E3 media at the controlled temperature of 28.5° C. until 7 days post-fertilization (dpf) when the experiments were performed.
The anticonvulsant activity of the claimed compounds on the nervous system of zebrafish (Danio rerio). This test is the modern alternative to tests in adult animals as Danio rerio is very versatile organism that has a number of physiological similarities to mammals, including humans (Expert Opin. Drug Metab. Toxicol. 2009, 5, 393). Steroidal compounds were tested in three concentrations (1, 3 and 5 μmol.L^−1) on 7 days post-fertilization (dpf) wild-type larvae. As a negative control, sibling larvae were incubated with DMSO 1%, which allows us to detect behavioral alterations of PTZ treated larvae. Seizures were induced by treatment of pentetrazol (PTZ) at the dose 5 mmol.L^−1. Commercially available anti-convulsant drug Topiramate was used as comparator. Results were analyzed with GraphPad Prism software and statistical significance is assessed by the One-way ANOVA statistical analysis followed by Tukey's multiple comparisons test. The zebrafish larvae locomotion and response to visual stimuli are traced and analyzed by the EthoVision XT 12 software and the DanioVision device from Noldus Information Technologies, Wageningen, The Netherlands.
This closed system consists of a camera placed above a chamber with circulating water and a temperature sensor that is set at 28° C. Individualized larvae in a 48-wells plate are placed in the chamber, which can provide different stimuli (light/dark environment, tapping, sound) controlled by the software. Prior to each experiment, larvae were left for 10 minutes in dark for acclimation, then predetermined series of alternating dark and light environment are presented to the larvae. The final experimental protocol is divided in three main part: first a 15 minutes step with light on, then a series of 5 short flashes of light to induce epileptic seizures and finally a 25 minutes dark/light alternating environments phase. Different sets of information can be extrapolated from the different phases: while the first step is useful to detect changes in the total larvae locomotion, the second part allows us to analyze the larval response to a seizure-inducing visual stimulus and measure the seizure characteristics: the maximum velocity and the number of angles turns (specific of seizure erratic movement). The final phase is useful to detect anomalies in larval movement and deviations from the stereotyped behavior (natural locomotor behavior of zebrafish is active in dark and immobile in light). The anticonvulsant effect of compounds was studied at doses of […] for the compound shown in Example 1, Example 2 and Example 3.

[2] = test system: PTZ-induced seizures in 12- and 25-day-old rats; experiment: PTZ-induced generalized tonic-clonic seizures in immature rats; type: in vivo, rat
Procedure: Anticonvulsant effect of compounds was evaluated in two models of epileptic seizures in immature rats (PTZ model and 6 Hz model). PTZ convulsions were tested in 12- and 25-day-old rats, 6 Hz-induced seizures in 15- and 25-day-old rats. Young adult rats (P60) were also used in either test. Day of birth was taken as P0. Experiments evaluating precognitive effect were performed in adult male rats of the Wistar and Long Evans strain (3 months old, b.w. 300-400 g). All animals were obtained from a breeding facility of Institute of Physiology CAS (certificate No. 1396/2014-MZE-17214) Animals were held in standard conditions (21±1° C., humidity 50-60%, light regime 12/12) with unrestricted access to food and water. All manipulations with animals were performed according to the https://nc3rs.org.uk/arrive-guidelines and to Czech Animal Protection Law 246/1992 Sb. And international directives (EU Directive 2010/63/EU for animals' experiments).
Two age groups of immature male Wistar rats were used in either experiment. In PTZ model P12 corresponding by a maturation of the brain to early postnatal human babies, i.e. to the period where children epileptic encephalopathy mostly resistant to present pharmacotherapy start to appear. The other group—P25 animals corresponds with school-age children. Generalized tonic-clonic seizures were elicited by a subcutaneous injection of PTZ in a dose of 100 mg/kg. The 6 Hz model was tested in P15 (at this age eyes are open and it is not necessary to surgically distract lids). Biphasic pulses with […] were applied transcorneally for 3 s by a constant current stimulator of Ugo Basile company. PTZ induced generalized seizures represent a model of human generalized tonic-clonic seizures, seizures elicited by 6 Hz stimulation are generally taken as a model of temporal (psychomotor, complex partial) seizures. Differences in latencies and seizure severity were evaluated by ANOVA with a subsequent pairwise comparison by Holm-Sidak test. Incidence of seizures were evaluated by Fischer exact test. Critical p value was set at p=0.05.
Anticonvulsant effect was studied in 12- and 25-day-old male Wistar rats. Steroid derivatives were administered at doses of 1, 5 and 10 mg/kg i.p. 20 min before the administration of PTZ (100 mg/kg s.c.).

[3] = test system: experimental seizures in animal models; settings: cited from earlier work; for effect in experimental seizures: seizures elicited by pentylenetetrazol, pilocarpine, NMDA and kainic acid
adults and children = settings: clinical studies; cited from earlier work
[4] = both age groups (P12, P25), 5 and 10 mg/kg i.p.

`C[C@@]12CCC[C@H]1[C@@H]1CC[C@@H]3C[C@H](OC(=O)C4CCCC(=O)N4)CC[C@]3(C)[C@H]1CC2` (stereo partly shown) showed a melting point of 109 to 111 °C.

In the case of `C[C@]12CC[C@@H](OC(=O)C3CCC(=O)N3)C[C@H]1CC[C@@H]1[C@@H]2CC[C@]2(C)[C@@H](C#N)CC[C@@H]12` (stereo partly drawn) [Example 3, (3R,5R,8R,9S,10S,13S,14S,17S)-17-Cyano-10,13-dimethylhexadecahydro-1H-cyclopenta[a]phenanthren-3-yl 5-oxopyrrolidine-2-carboxylate], the “epileptiform locomotor activity in the dark phase/light test, sedation” value [1] is reported as “decreased epileptiform locomotor activity in the dark phase/light test without causing sedation”, the “locomotor activity epileptiform induced by PTZ (spontaneous locomotor activity, maximum velocity, angle turns)” value [1] is reported as “significantly reduced the locomotor activity epileptiform induced by PTZ” and the “incidence of GTCS” value ([2]; P12 rats, 1, 5, 10 mg/kg i.p.) is reported as “significantly affected only by the 5-mg/kg dose”. For the same molecule, the “incidence of GTCS” value ([2]; P25 rats, 5 and 10 mg/kg i.p.) was “suppressed incidence of GTCS”.

In the case of `C/C=C1/CC[C@H]2[C@@H]3CC[C@@H]4C[C@H](OC(=O)C5CCC(=O)N5)CC[C@]4(C)[C@H]3CC[C@]12C` (stereo partly shown), the melting point is reported as 155 to 157 °C.

In the case of `CC(=O)[C@H]1CC[C@H]2[C@@H]3CC[C@H]4C[C@H](O)CC[C@]4(C)[C@H]3CC[C@]12C` [ALLO, 20-oxo-5α-pregnan-3α-ol], the “frequency of seizures, mortality and cellular death” value ([3]; animal models of epilepsy) is given as “deceases frequency of seizures, mortality and cellular death” and the “effect in experimental seizures” value [3] is given as “significant effect”.

For `CC(=O)[C@H]1CC[C@H]2[C@@H]3CC[C@H]4C[C@](C)(O)CC[C@]4(C)[C@H]3CC[C@]12C` [Ganaxolone], the generation of seizures ([3]; rodents) is given as “able to prevent generation of seizures in rodents” and the tolerability (adults and children) is given as “good tolerability in adults as well as children”.

`CC(=O)[C@H]1CC[C@H]2[C@@H]3CC[C@@H]4C[C@H](OC(=O)C5CCC(=O)N5)CC[C@]4(C)[C@H]3[C@H](O)C[C@]12C` (stereo partly shown) showed a melting point of 183 to 185 °C.

For `CC(=O)[C@H]1CC[C@H]2[C@@H]3CC[C@H]4C[C@@H](OC(=O)[C@@H]5CCC(=O)N5)CC[C@]4(C)[C@H]3CC[C@]12C` [Allopregnanolone (S)-5-oxopyrrolidin-2-carboxylate, reference compound], the “action against generalized tonic-clonic seizures” value ([2]; PTZ 100 mg/kg s.c., 12- and 25-day-old rats) was “only a moderate action”.

For `C[C@@]12CCC[C@H]1[C@@H]1CC[C@@H]3C[C@H](OCCOC(=O)C4CCC(=O)N4)CC[C@]3(C)[C@H]1CC2` (stereo partly shown), the melting point was 110 to 111 °C.

With `C[C@H]1CC[C@H]2[C@@H]3CC[C@@H]4C[C@H](OC(=O)C5CCC(=O)N5)CC[C@]4(C)[C@H]3CC[C@]12C` (stereo partly shown) the melting point was 157 to 158 °C.

In the case of `CC(=O)[C@H]1CC[C@H]2[C@@H]3CC[C@@H]4C[C@H](OC(=O)C5CCCC(=O)N5)CC[C@]4(C)[C@H]3CC[C@]12C` (stereo partly drawn) [Example 2, (3R,5R,8R,9S,10S,13S,14S,17S)-17-Acetyl-10,13-dimethylhexadecahydro-1H-cyclopenta[a]phenantren-3-yl 6-oxopiperidine-2-carboxylate], the “epileptiform locomotor activity in the dark phase/light test, sedation” value [1] is reported as “decreased epileptiform locomotor activity in the dark phase/light test without causing sedation”, the “locomotor activity epileptiform induced by PTZ (spontaneous locomotor activity, maximum velocity, angle turns)” value [1] is reported as “significantly reduced the locomotor activity epileptiform induced by PTZ” and the “incidence of GTCS” value [2, 4] is reported as “suppressed significantly”. For the same molecule, the seizure severity [2, 4] was “suppressed significantly”.

For `C[C@@]12CCC[C@H]1[C@@H]1CC[C@@H]3C[C@H](OCCOC(=O)C4CCCC(=O)N4)CC[C@]3(C)[C@H]1CC2` (stereo partly shown), the melting point was 117 to 119 °C.

For `CC(=O)[C@H]1CC[C@H]2[C@@H]3CCC4=CC(=O)CC[C@]4(C)[C@H]3CC[C@]12C` [PROG, pregn-4-en-3,20-dione], the “effect in experimental seizures” value [3] is listed as “significant effect”.

For `C[C@]12CC[C@@H](OC(=O)C3CCCC(=O)N3)C[C@H]1CC[C@@H]1[C@@H]2CC[C@]2(C)[C@@H](C#N)CC[C@@H]12` (stereo partly shown), the melting point was 69 to 71 °C.

`C[C@@]12CCC[C@H]1[C@@H]1CC[C@@H]3C[C@H](OC(=O)C4CCC(=O)N4)CC[C@]3(C)[C@H]1CC2` (stereo partly shown) showed a melting point of 136 to 137 °C.

With `CC(=O)NCC(=O)O[C@@H]1CC[C@@]2(C)[C@H](CC[C@@H]3[C@@H]2CC[C@]2(C)[C@@H](C(C)=O)CC[C@@H]32)C1` the melting point was 111 to 113 °C.

For `CC(=O)[C@H]1CC[C@H]2[C@@H]3CCC4=C[C@@H](OC(=O)[C@@H]5CCCN5)CC[C@]4(C)[C@H]3CC[C@]12C` [PI-33, 3β-L-proline-progesterone-HCl, reference compound], the “incidence of generalized tonic-clonic seizures” value ([2]; 1 and 10 mg/kg doses) was “did not change incidence of generalized tonic-clonic seizures”.

`C[C@]12CC[C@@H](OC(=O)C3CCC(=O)N3)C[C@H]1CC[C@@H]1[C@@H]2CC[C@]2(C)C(=O)CC[C@@H]12` (stereo partly shown) gave a melting point of 114 to 116 °C.
